Where two headings read alike, the source gives them in different places.
Legend:
human hepatocytes = test: Metabolite identification in human hepatocyte suspension; details: 5-MeO-DMT free base 10 μM, incubated up to 120 minutes
Protocol: For incubations with cryopreserved hepatocytes, the 2 mM stock solution was diluted with Leibovitz L-15 medium to a concentration of 20 μM or 2 μM. An aliquot (250 μL) of the 20 μM and 2 μM test substance formulations was added to each hepatocyte incubation sample (250 μL), as appropriate, so that the final test substance concentration in the incubations was 10 μM or 1 μM, respectively, and incubations contained less than 1% (v/v) solvent.
Incubations were performed at ca. 37° C. in a shaking water bath (total incubation volume 0.5 mL). For 1 μM, incubations were terminated after 0, 5, 10, 20, 30, 60 and 120 minutes, by the addition of ice-cold acetonitrile (0.5 mL).
The samples were vortex mixed and centrifuged at ca 13,000 rpm for 10 minutes at room temperature. Following centrifugation, the protein-free supernatants were removed for analysis.
Blank control incubations were carried out with Leibovitz L-15 medium in place of the test substance. No cells control samples were performed with Leibovitz L-15 medium in place of hepatocytes. Aliquots of the blank control samples were taken at 120 minutes, while no cells control samples were taken at 0, 30 and 120 for 1 μM incubations and at 0 and 120 minutes for 10 μM incubations.
All 1 μM incubations were performed in duplicate, while all 10 μM incubations were performed in singlet. All samples were stored at −80° C. (nominal) prior to analysis.
Prior to sample analysis a 100 μL aliquot of each sample was evaporated to near dryness under a steady stream of nitrogen at room temperature, and subsequently reconstituted in 50 μL of mobile phase A (0.1% formic acid in water). Each sample (0, 30 and 120-minute, 10 μM) was analysed using accurate mass LC-MS to determine relative levels of parent compound at each time-point, and determine the profile of metabolites formed. Appropriate blank and control samples were also analysed. The 10 and 60-minute, 10 μM incubation samples were not analysed and were stored at −80° C. (nominal). […]

[1] = LC-MS/MS of 5-MeO-DMT, bufotenine and 5-MIAA in urine, serum and breastmilk of lactating PPD patient; infant exposure estimates; details: for Breastmilk concentration / Serum concentration / Urine concentration: second patient
Source text: When determining the potential impact of maternal drug administration on a breastfed infant, it is standard practice to calculate the Relative Infant Dose (RID) (Bennett, P. N., and L. J. Notarianni. “Risk from drugs in breast milk: an analysis by relative dose.” Br J Clin Pharmacol 42.5 (1996): P673-4). The RID is the dosage (in μg/kg/day) the infant is exposed to by the intake of breast milk, divided by the dosage (in μg/kg/day) the mother receives.
Using estimates for daily intake of breast milk and the number of feeds as well as the measured breast milk concentrations the exposure of the infant can be determined.
For example, a published estimate for daily intake of breast milk as a function of infant weight is 150 ml/kg/day. To model the exposure, it is assumed that an infant of 5 kg is fed three times over 24 hours, receiving 250 ml breast milk each time.
The second patient was lactating, and, per the clinical trial protocol, breastmilk samples were collected pre-dosing and at multiple timepoints after administration of the last dose. […] Similar analyses were carried out on patient serum and urine samples.

human plasma protein = test: Plasma binding of 5-MIAA; type: in vitro ADME
Protocol: (§1) Binding to human plasma protein was determined. Reported are the unbound fraction (fu) for three replicates as well as the mean unbound fraction, the standard deviation and the mean % recovery (Table 8).

[2] = system: human hepatocytes (Hμrel HumanPool co-culture); test: Metabolic stability in Hμrel human hepatocyte co-culture
[3] = Pharmacokinetics of 5-MeO-DMT and bufotenine after single inhaled dose; type: in vivo, human; details: from 15 min onwards after 5-MeO-DMT inhalation; LLOQ
Protocol: Blood samples were obtained at 1; 2; 4; 7; 10; 15; 20; 30; 45 min and 1; 1.5; 2; 3; 4 hours after administration.
PK parameters were generated by algebraic analysis of the concentration versus time plots for each individual. The analysis was carried out using the software Phoenix WinNonlin 6.3.

Plasma binding of 5-MIAA = type: in vitro ADME; details: for fraction unbound: human, plasma
Protocol: as §1

[4] = 5 kg infant, three feeds of 250 ml

| Compound | Relative Proportion of compounds identified (human hepatocytes) | Breastmilk concentration ([1]; 1.0 hrs after last dose) | Serum concentration ([1]; 1.0 hrs after last dose) | Breastmilk concentration ([1]; 2.5 hrs after last dose) | Serum concentration ([1]; 2.5 hrs after last dose) | Breastmilk concentration ([1]; 8.5 hrs after last dose) | Urine concentration ([1]; 8.5 hrs after last dose) | Breastmilk concentration ([1]; 24.0 hrs after last dose) | Serum concentration ([1]; 24.0 hrs after last dose) | Urine concentration ([1]; 24.0 hrs after last dose) | Breastmilk concentration ([1]; 120.0 hrs after last dose) | Serum concentration ([1]; 120.0 hrs after last dose) | Urine concentration ([1]; 120.0 hrs after last dose) | Breastmilk concentration ([1]; −24.0 hrs (pre-dosing)) | Serum concentration ([1]; −24.0 hrs (pre-dosing)) | Urine concentration ([1]; −24.0 hrs (pre-dosing)) | other results |
| --- | --- | --- | --- | --- | --- | --- | --- | --- | --- | --- | --- | --- | --- | --- | --- | --- | --- |
| COc1ccc2[nH]cc(CC[N+](C)(C)[O-])c2c1 [5-MeO-DMT-N-oxide] | 1% |  |  |  |  |  |  |  |  |  |  |  |  |  |  |  |  |
| 5-Methoxyindole acetic acid [5-MIAA] |  | 13945.2 pg/mL | 263.092 ng/mL | 13240.9 pg/mL | 101.9947 ng/mL | 359.4 pg/mL | 291651 pg/mL | 35.5 pg/mL | 0.2706 ng/mL | 18649 pg/mL | BLQ (Below limit of quantification. The lower limit of quantification is 25 pg/ml for both 5-MeO-DMT and 5-MIAA in both serum and breastmilk; it is 25 pg/ml in urine for 5-MeO-DMT and 250 pg/ml for 5-MIAA in urine.) | 0.0671 ng/mL | 9444 pg/mL | BLQ (Below limit of quantification. The lower limit of quantification is 25 pg/ml for both 5-MeO-DMT and 5-MIAA in both serum and breastmilk; it is 25 pg/ml in urine for 5-MeO-DMT and 250 pg/ml for 5-MIAA in urine.) | 0.051 ng/mL | 8113 pg/mL | DID of 5-MIAA per kg [1, 4]: 0.001377 mg/kg/day; DID, total exposure of the infant to 5-MIAA [1, 4]: 0.006886 mg/day; Mean % Recovery (human plasma protein): 81.4%; Plasma binding (mean fraction unbound) (human plasma protein): ~50%; Unbound fraction (fu), Replicate 1 (human plasma protein): 0.499; Unbound fraction (fu), Replicate 2 (human plasma protein): 0.462; Unbound fraction (fu), Replicate 3 (human plasma protein): 0.544; Mean fu (human plasma protein; three replicates): 0.502; Disappearance with stromal cell controls ([2]; 0-72 h): no disappearance; Remaining abundance after 72h ([2]; hepatocytes, 1 and 10 μM): 75-82%; In vitro intrinsic clearance ([2]; human hepatocytes, 1 μM): 0.15 μl/min/million cells |
| CN(C)CCc1c[nH]c2ccc(O)cc12 [Bufotenine] | 5% | BLQ (Below limit of quantification. The lower limit of quantification is 25 pg/ml for both 5-MeO-DMT and 5-MIAA in both serum and breastmilk; it is 25 pg/ml in urine for 5-MeO-DMT and 250 pg/ml for 5-MIAA in urine.) | BLQ (Below limit of quantification. The lower limit of quantification is 25 pg/ml for both 5-MeO-DMT and 5-MIAA in both serum and breastmilk; it is 25 pg/ml in urine for 5-MeO-DMT and 250 pg/ml for 5-MIAA in urine.) | BLQ (Below limit of quantification. The lower limit of quantification is 25 pg/ml for both 5-MeO-DMT and 5-MIAA in both serum and breastmilk; it is 25 pg/ml in urine for 5-MeO-DMT and 250 pg/ml for 5-MIAA in urine.) | BLQ (Below limit of quantification. The lower limit of quantification is 25 pg/ml for both 5-MeO-DMT and 5-MIAA in both serum and breastmilk; it is 25 pg/ml in urine for 5-MeO-DMT and 250 pg/ml for 5-MIAA in urine.) | BLQ (Below limit of quantification. The lower limit of quantification is 25 pg/ml for both 5-MeO-DMT and 5-MIAA in both serum and breastmilk; it is 25 pg/ml in urine for 5-MeO-DMT and 250 pg/ml for 5-MIAA in urine.) | BLQ (Below limit of quantification. The lower limit of quantification is 25 pg/ml for both 5-MeO-DMT and 5-MIAA in both serum and breastmilk; it is 25 pg/ml in urine for 5-MeO-DMT and 250 pg/ml for 5-MIAA in urine.) | BLQ (Below limit of quantification. The lower limit of quantification is 25 pg/ml for both 5-MeO-DMT and 5-MIAA in both serum and breastmilk; it is 25 pg/ml in urine for 5-MeO-DMT and 250 pg/ml for 5-MIAA in urine.) | BLQ (Below limit of quantification. The lower limit of quantification is 25 pg/ml for both 5-MeO-DMT and 5-MIAA in both serum and breastmilk; it is 25 pg/ml in urine for 5-MeO-DMT and 250 pg/ml for 5-MIAA in urine.) | BLQ (Below limit of quantification. The lower limit of quantification is 25 pg/ml for both 5-MeO-DMT and 5-MIAA in both serum and breastmilk; it is 25 pg/ml in urine for 5-MeO-DMT and 250 pg/ml for 5-MIAA in urine.) | BLQ (Below limit of quantification. The lower limit of quantification is 25 pg/ml for both 5-MeO-DMT and 5-MIAA in both serum and breastmilk; it is 25 pg/ml in urine for 5-MeO-DMT and 250 pg/ml for 5-MIAA in urine.) | BLQ (Below limit of quantification. The lower limit of quantification is 25 pg/ml for both 5-MeO-DMT and 5-MIAA in both serum and breastmilk; it is 25 pg/ml in urine for 5-MeO-DMT and 250 pg/ml for 5-MIAA in urine.) | BLQ (Below limit of quantification. The lower limit of quantification is 25 pg/ml for both 5-MeO-DMT and 5-MIAA in both serum and breastmilk; it is 25 pg/ml in urine for 5-MeO-DMT and 250 pg/ml for 5-MIAA in urine.) | BLQ (Below limit of quantification. The lower limit of quantification is 25 pg/ml for both 5-MeO-DMT and 5-MIAA in both serum and breastmilk; it is 25 pg/ml in urine for 5-MeO-DMT and 250 pg/ml for 5-MIAA in urine.) | BLQ (Below limit of quantification. The lower limit of quantification is 25 pg/ml for both 5-MeO-DMT and 5-MIAA in both serum and breastmilk; it is 25 pg/ml in urine for 5-MeO-DMT and 250 pg/ml for 5-MIAA in urine.) | BLQ (Below limit of quantification. The lower limit of quantification is 25 pg/ml for both 5-MeO-DMT and 5-MIAA in both serum and breastmilk; it is 25 pg/ml in urine for 5-MeO-DMT and 250 pg/ml for 5-MIAA in urine.) | Blood concentration of metabolite bufotenine [3]: < 0.025 ng/mL |
| CC(=O)CC(c1ccccc1)c1c(O)c2ccccc2oc1=O (stereo not shown) [Warfarin, reference compound] |  |  |  |  |  |  |  |  |  |  |  |  |  |  |  |  | recovery (Plasma binding of 5-MIAA; human plasma): 78.1%; fraction unbound (Plasma binding of 5-MIAA; read-out: Unbound fraction (fu), Replicate 1): 0.0418; fraction unbound (Plasma binding of 5-MIAA; read-out: Unbound fraction (fu), Replicate 2): 0.0356; fraction unbound (Plasma binding of 5-MIAA; read-out: Unbound fraction (fu), Replicate 3): 0.0358; fraction unbound (Plasma binding of 5-MIAA; three replicates, read-out: Mean fu): 0.0377 |

Source: patent US20240108601A1, “TREATMENT OF MENTAL DISORDERS” (GH Research Ireland Limited, priority 2022, published 2024)
